The source of these data is US5189018A, “Method for reduction of central nervous system (CNS) edema resulting from head and spinal cord trauma” (Wayne State University, priority 1991, dated 1993).

Molecules are shown by their SMILES. Non-standard residues stand in square brackets, D forms with d. Residues, ends and D or L forms follow the SMILES beside them. Met(O2) = CS(=O)(=O)CC[C@H](N)C(=O)O

One series relates to intracranial pressure. Set-up: species or system rat (Wistar). Particulars: rat, in vivo. From the text: (§1) Applicant has developed a reliable physiologic model of potentially reversible, controlled fixed and closed-head injury in the laboratory rat (Wistar, Harlan Sprague-Dawley, Inc. Indianapolis, Ind.) that mimics many of the features of moderate concussion in humans. The model permits long term examination of subsequent cerebrovascular pathophysiological sequelae in conscious, unrestrained animals.
A rat anesthetized with halothane was mounted in a prone position on the test board and the head was fixed in position by means of the bite plate 30 over which the upper incisors were engaged as shown in FIG. 1c. The board angle of recline and the axis of pendulum rotation were adjustable to permit a flat or angled (3°-5° ) strike on the chosen head impact site. The optimum applied force/angle was selected from the nomogram. The pendulum was raised to the desired angle and released through a quick-release mechanism to fall into impact with the head. Forces developed by this means ranged from 60 to 85 pounds. […]
Intracranial pressures were determined in separate but identically treated animals. […] A Camino 431 miniature pressure sensor was inserted into the tubing and pressure was measured on Camino 420 Digital Pressure Monitor System. Intracranial pressure measurements were monitored from 5 minutes before and up to […] following head impaction. […]

The subject of series [1] is blood brain barrier permeability. The arrangement: species or system rat (Wistar). Particulars: rat, in vivo.
Text: as §1
A rat anesthetized with halothane was mounted in a prone position on the test board and the head was fixed in position by means of the bite plate 30 over which the upper incisors were engaged as shown in FIG. 1c. […]
Brain vascular volume (BVS) and permeability were determined simultaneously utilizing modified methods of Rapoport, as described below (18). […] Moreover, estimates of BVS determined with either tracer are in agreement with published values obtained at more conventional time-intervals, e.g., two to ten minutes, after intravenous injection with an error of less than 4%. […]
The experimental protocol for the measurement of blood-to-brain transfer of diffusion-limited substances such as sucrose involved surgical implantation of catheters, one in a femoral vein, the other in the opposite femoral artery, under halothane anesthesia. […] The behavior of the animal was carefully monitored. […]

Series [2] is described as follows: Toxicity of subcutaneous doses in the rat model. In kind it is in vivo. Conditions: doses up to four times 27.2 ug (65-75 ug/kg), s.c.
Series [3] relates to dementias; alcoholic inebriation. Conditions: human, in vivo; cited from earlier work.
The conditions of series [4]: modified peptide less susceptible to enzymatic degradation, versus ACTH4-10; cited from earlier work.
The subject of another series is cisplatin neuropathy. Particulars: in vivo; cited from earlier work.

For `CS(=O)(=O)CC[C@H](N)C(=O)N[C@@H](CCC(=O)O)C(=O)N[C@@H](Cc1c[nH]cn1)C(=O)N[C@@H](Cc1ccccc1)C(=O)N[C@H](CCCCN)C(=O)N[C@@H](Cc1ccccc1)C(=O)O` [Organon 2766, Met (O2) Glu-His-Phe-D-Lys-Phe] (H-[Met(O2)]EHF[dK]F-OH), in the series with intracranial pressure, the “ICP in uninjured animals” value is “not different from control animals”. The “permeability of the blood-brain barrier at high dose” value in series [1] was “dramatically increased”. In addition, the lethality result in series [2] is “not lethal”. Moreover, in series [3], the “toxicity and side effects in humans” value was “non-toxic and had no serious side effects”. Further, the “half life in vivo” value in series [4] is “longer half life”. Further, in the series with cisplatin neuropathy, the “cytotoxic effect of cisplatin” value is on record as “without adversely effecting” and the toxic effects entry is “No toxic effects were noted”.
